Data from patent US8940861B2, “Variants of ancestral uricases and uses thereof” (Georgia Tech Research Corporation, priority 2010, dated 2015).

What was measured:
[1] = target: T1, pig uricase, SEQ ID NO:10 (Sus scrofa, UniProt P16164); details: 0.1M Na2HPO4/Na2H2PO4, pH 7.4; 24° C.
T1 sequence (P16164 1-304): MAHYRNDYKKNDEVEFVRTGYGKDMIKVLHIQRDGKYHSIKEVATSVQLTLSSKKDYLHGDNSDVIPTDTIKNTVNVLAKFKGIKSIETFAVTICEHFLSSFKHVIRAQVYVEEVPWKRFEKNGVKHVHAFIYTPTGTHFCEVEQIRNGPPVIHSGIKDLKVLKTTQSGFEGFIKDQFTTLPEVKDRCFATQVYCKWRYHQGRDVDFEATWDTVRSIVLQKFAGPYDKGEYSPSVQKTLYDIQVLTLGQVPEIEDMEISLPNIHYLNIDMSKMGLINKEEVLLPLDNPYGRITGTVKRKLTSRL

[2] = tested on: ancestral mammalian uricase Node 19 (four identical subunits), SEQ ID NO:2; experiment: Uricolytic activity, A293 decrease, steady-state kinetics; type: biochemical; details: 0.1M Na2HPO4/Na2H2PO4, pH 7.4; 24° C.
Text: (§1) Uricases were designed using Ancestral Sequence Reconstruction (ASR) to reconstruct and resurrect ancestral forms of human uricase based upon an analysis of modern mammalian uricases. See generally Gaucher, “Ancestral sequence reconstruction as a tool to understand natural history and guide synthetic biology: Realizing (and extending) the vision of Zukerkandl and Pauling” in ANCESTRAL SEQUENCE RECONSTRUCTION, ed. David A. Liberles, pp. 20-33 (Oxford University Press, 2007). Ancestral uricase sequences corresponding to various nodes of the phylogenetic tree were inferred by analyzing modern mammalian uricase sequences (FIG. 1), and uricases were designed based upon those inferred sequences. Uricase subunits of the present invention may therefore comprise an amino acid sequence corresponding to the inferred amino acid sequence at one of the nodes highlighted in FIG. 1 (e.g., Node 18, Node 19, Node 26, Node 27, Node 30, Node 31 or Node 32) or to a variant of the inferred amino acid sequence at one of the nodes highlighted in FIG. 1.

[3] = tested on: ancestral mammalian uricase Node 27 (four identical subunits), SEQ ID NO:4; experiment: as above; type: biochemical; details: phosphate buffered saline, pH 7.4; 24° C.
Text: as §1

[4] = tested on: ancestral mammalian uricase Node 26 (four identical subunits), SEQ ID NO:3; experiment: as above; type: biochemical; details: phosphate buffered saline, pH 7.4
Text: as §1

[5] = tested on: pig-baboon chimeric uricase (amino acids 1-225 of SEQ ID NO:10 and amino acids 226-304 of SEQ ID NO:11); experiment: as above; type: biochemical; details: 0.1M Na2HPO4/Na2H2PO4, pH 7.4; 24° C.

Vmax [1]: 2.4 × 10^−3 μmol uric acid/min
Km [2]: 4 µM
Vmax [2]: 4.3 × 10^−3 μmol uric acid/min
kcat [2]: 325 min⁻¹
Km [3]: 5.3 µM
Vmax [3]: 8.1 × 10^−4 μmol uric acid/min
kcat [3]: 25 min⁻¹
Km ([4]; 24° C.): 4.9 µM
Vmax ([4]; 24° C.): 1.4 × 10^−3 μmol uric acid/min
kcat ([4]; 24° C.): 75 min⁻¹
Km ([4]; 37° C.): 4.9 µM
Vmax ([4]; 37° C.): 4.3 × 10^−3 μmol uric acid/min
kcat ([4]; 37° C.): 225 min⁻¹
Km [5]: 2200 nM
Vmax [5]: 2.8 × 10^−3 μmol uric acid/min
kcat [5]: 287 min⁻¹
SMILES: O=c1[nH]c(=O)c2[nH]c(=O)[nH]c2[nH]1 [uric acid]
